Measurements: US20240025906A1 (NEURON23, INC., priority 2022, published 2024)
Read-outs that look alike come from different tables or passages of the source.

Experiments:
[1] = test system: JAK1/TYK2 pSTAT5 (Tyr694/699) in THP-1 cell line; test: IFNa-stimulated JAK1/TYK2 pSTAT5 (Tyr694/699) inhibition cellular assay, AlphaLISA; type: cell-based; settings: Homo sapiens, THP-1 cells, AlphaLISA (Assay B)
Summary of the method: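 THP-1, 2e4 cells/well, HBSS; cpd 1 h 37 °C (10000–0.04 nM final, 6-fold, 8 pt); IFNa 100 ng/mL added, 30 min; lyse, freeze −80 °C; pSTAT5 AlphaLISA, 615 nm; 4PL IC50, bottom fixed 0, slope −1.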

TYK2 JH2 = target: T1, TYK2 JH2 (Homo sapiens, UniProt P29597); test: TYK2 JH2 binding assay (KINOMEscan KdELECT competitive binding); settings: TYK2 JH2 domain
T1 construct: purchased DiscoverX (KINOMEscan KdELECT service); host or cells: E. coli BL21-derived (T7 phage display) or HEK-293
Summary of the method: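 Kd values come from qPCR measurement of kinase retained on an immobilized-ligand resin after 1 h room-temperature competition with compound in an 11-point, 3-fold series.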

[2] = IFNa-stimulated, read-out: Cellular_THP1_IFNa-pSTATS_TYK2
[3] = DiscoverX KINOMEscan KdELECT (Assay A), read-out: Biochemical TYK2_DiscoverX_JH2_BND_Kd
[4] = KINOMEscan KdELECT (Assay A), read-out: Biochemical TYK2_DiscoverX_JH2_BND_Kd

T1 sequence (P29597 589-875 limits assumed): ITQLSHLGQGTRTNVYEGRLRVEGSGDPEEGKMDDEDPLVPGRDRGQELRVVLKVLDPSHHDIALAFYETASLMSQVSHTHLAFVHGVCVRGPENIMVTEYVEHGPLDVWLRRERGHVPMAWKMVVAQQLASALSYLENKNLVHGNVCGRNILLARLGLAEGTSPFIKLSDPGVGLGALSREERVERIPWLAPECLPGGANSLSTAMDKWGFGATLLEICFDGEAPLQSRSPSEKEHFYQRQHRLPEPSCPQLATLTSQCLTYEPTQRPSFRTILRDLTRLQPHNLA

Structure (SMILES) | IC50 [1, 2] | Kd (TYK2 JH2; [3]) | Kd (TYK2 JH2; [4]) | further results
[2H]C([2H])([2H])Nc1ncc(-c2nc3ccc(C)cn3n2)c2cc(NC(=O)C3(F)CC3)ncc12 [Example 577, 1-fluoro-N-(8-((methyl-d3)amino)-5-(6-methyl-[1,2,4]triazolo[1,5-a]pyridin-2-yl)-2,7-naphthyridin-3-yl)cyclopropane-1-carboxamide] | > 500 nM | ≤ 100 nM | – | –
CNc1ncc(-c2nc3cc(N4CC(CC(F)F)C4)ccc3o2)c2cc(NC(=O)C3CC3)ncc12 [Example 319, N-(5-(5-(3-(2,2-difluoroethyl)azetidin-1-yl)benzo[d]oxazol-2-yl)-8-(methylamino)-2,7-naphthyridin-3-yl)cyclopropanecarboxamide] | ≤ 500 nM | ≤ 100 nM | – | –
CNc1ncc(-c2nc3ccc(N4CCO[C@@H](C)C4)cn3n2)c2cc(NC(=O)C3CC3)ncc12 [Example 478, (S)-N-(8-(methylamino)-5-(6-(2-methylmorpholino)-[1,2,4]triazolo[1,5-a]pyridin-2-yl)-2,7-naphthyridin-3-yl)cyclopropanecarboxamide] | ≤ 500 nM | ≤ 100 nM | – | –
CNC(=O)c1ccc(C#Cc2cnc(NC)c3cnc(NC(=O)C4CC4)cc23)cc1 [Example 672, 4-((6-(cyclopropanecarboxamido)-1-(methylamino)-2,7-naphthyridin-4-yl)ethynyl)-N-methylbenzamide] | ≤ 500 nM | – | ≤ 100 nM | –
CNc1ncc(C#Cc2cc3ccc(F)cn3n2)c2cc(NC(=O)C3CC3)ncc12 [Example 767, N-(5-((6-fluoropyrazolo[1,5-a]pyridin-2-yl)ethynyl)-8-(methylamino)-2,7-naphthyridin-3-yl)cyclopropanecarboxamide] | ≤ 500 nM | – | ≤ 100 nM | –
CNc1ncc(-c2nc3cccc(N4CC(COC)C4)c3o2)c2cc(NC(=O)C3CC3)ncc12 [Example 264, N-(5-(7-(3-(methoxymethyl)azetidin-1-yl)benzo[d]oxazol-2-yl)-8-(methylamino)-2,7-naphthyridin-3-yl)cyclopropanecarboxamide] | ≤ 500 nM | ≤ 100 nM | – | –
CNc1ncc(-c2nc3cc(N4CCOCC4)ccc3o2)c2cc(NC(=O)[C@@H]3C[C@@H]3CF)ncc12 (single isomer, unassigned) [Example 452] | ≤ 500 nM | ≤ 100 nM | – | –
CNc1ncc(C#Cc2ccc(-n3nccn3)cn2)c2cc(NC(=O)C3CC3)ncc12 [Example 953, N-(5-((5-(2H-1,2,3-triazol-2-yl)pyridin-2-yl)ethynyl)-8-(methylamino)-2,7-naphthyridin-3-yl)cyclopropanecarboxamide] | ≤ 500 nM | – | ≤ 100 nM | –
[2H]C([2H])([2H])Nc1ncc(-c2nc3ccccn3n2)c2cc(NC(=O)[C@H]3C[C@H]3F)ncc12 [Example 566, (1R,2R)—N-(5-([1,2,4]triazolo[1,5-a]pyridin-2-yl)-8-((methyl-d3)amino)-2,7-naphthyridin-3-yl)-2-fluorocyclopropane-1-carboxamide] | ≤ 500 nM | ≤ 100 nM | – | –
CC[C@@H]1C[C@H]1C(=O)Nc1cc2c(-c3nc4ccc(OC)cn4n3)cnc(NC)c2cn1 (single isomer, unassigned) [Example 522] | ≤ 500 nM | ≤ 100 nM | – | –
CNc1ncc(-c2nc3ccc(N4CCO[C@H]([C@H](C)O)C4)cn3n2)c2cc(NC(=O)C3CC3)ncc12 (single isomer, unassigned) [Example 1047] | – | – | ≤ 100 nM | IC50 ([1]; IFNa-stimulated pSTAT5 (Tyr694/699), read-out: Cellular_THP1_IFNa-pSTATS_TYK2): ≤ 500 nM
CNc1ncc(N2CCCC2)c2cc(NC(=O)C3CC3)ncc12 [Example 55, N-(8-(methylamino)-5-(pyrrolidin-1-yl)-2,7-naphthyridin-3-yl)cyclopropanecarboxamide] | – | – | – | IC50 ([1]; IFNa-stimulated, read-out: Cellular THP1_IFNa-pSTATS_IC50): > 500 nM; Kd (TYK2 JH2; KINOMEscan KdELECT (Assay A), read-out: Biochemical TYK2_JH2_Kd): ≤ 100 nM
CNc1ncc(C#Cc2ccc3nnn(CCC#N)c3c2)c2cc(NC(=O)C3CC3)ncc12 [Example 686, N-(5-((1-(2-cyanoethyl)-1H-benzo[d][1,2,3]triazol-6-yl)ethynyl)-8-(methylamino)-2,7-naphthyridin-3-yl)cyclopropanecarboxamide] | ≤ 500 nM | – | ≤ 100 nM | –
CNc1ncc(-c2nc3ccc(C)cn3n2)c2cc(NC(=O)C3CC3)ncc12 [Example 503, N-(5-(6-methyl-[1,2,4]triazolo[1,5-a]pyridin-2-yl)-8-(methylamino)-2,7-naphthyridin-3-yl)cyclopropanecarboxamide] | ≤ 500 nM | ≤ 100 nM | – | –
CNc1ncc(C#Cc2nccc3ccsc23)c2cc(NC(=O)C3CC3)ncc12 [Example 984, N-[8-(methylamino)-5-(2-thieno[2,3-c]pyridin-7-ylethynyl)-2,7-naphthyridin-3-yl]cyclopropanecarboxamide] | ≤ 500 nM | – | ≤ 100 nM | –
CNc1ncc(-c2nc3cc(OCC(C)(C)OC)ccc3o2)c2cc(NC(=O)C3CC3)ncc12 [Example 256, N-(5-(5-(2-methoxy-2-methylpropoxy)benzo[d]oxazol-2-yl)-8-(methylamino)-2,7-naphthyridin-3-yl)cyclopropanecarboxamide] | ≤ 500 nM | ≤ 100 nM | – | –
CNc1ncc(-c2nc3cc(OC4CN(C(=O)OC(C)(C)C)C4)ccc3o2)c2cc(NC(=O)C3CC3)ncc12 [Example 196, tert-butyl 3-((2-(6-(cyclopropanecarboxamido)-1-(methylamino)-2,7-naphthyridin-4-yl)benzo[d]oxazol-5-yl)oxy)azetidine-1-carboxylate] | ≤ 500 nM | ≤ 100 nM | – | –
CNc1ncc(-c2nc3cc(N4CCCS4(=O)=O)ccc3o2)c2cc(NC(=O)C3CC3)ncc12 [Example 328, N-(5-(5-(1,1-dioxidoisothiazolidin-2-yl)benzo[d]oxazol-2-yl)-8-(methylamino)-2,7-naphthyridin-3-yl)cyclopropanecarboxamide] | ≤ 500 nM | ≤ 100 nM | – | –
CNc1ncc(-c2nc3cc(OC)ccc3o2)c2cc(NC(=O)C3(F)CC3)ncc12 [Example 381, 1-fluoro-N-(5-(5-methoxybenzo[d]oxazol-2-yl)-8-(methylamino)-2,7-naphthyridin-3-yl)cyclopropane-1-carboxamide] | > 500 nM | ≤ 100 nM | – | –
CNc1ncc(-c2nc3cc(N4CCO[C@H](C)C4)ccc3o2)c2cc(NC(=O)[C@@H]3C[C@@H]3F)ncc12 [Example 418, (1S,2S)-2-fluoro-N-(8-(methylamino)-5-(5-((R)-2-methylmorpholino)benzo[d]oxazol-2-yl)-2,7-naphthyridin-3-yl)cyclopropane-1-carboxamide] | ≤ 500 nM | ≤ 100 nM | – | –
[2H]C([2H])([2H])Nc1ncc(-c2nc3ccc(N4CCC(F)(F)CC4)cn3n2)c2cc(NC(=O)C3CC3)ncc12 [Example 513, N-(5-(6-(4,4-difluoropiperidin-1-yl)-[1,2,4]triazolo[1,5-a]pyridin-2-yl)-8-((methyl-d3)amino)-2,7-naphthyridin-3-yl)cyclopropanecarboxamide] | ≤ 500 nM | ≤ 100 nM | – | –
CNc1ncc(C#Cc2ccc(OCC3CN(C)C3)cc2)c2cc(NC(=O)C3CC3)ncc12 [Example 712, N-(8-(methylamino)-5-((4-((1-methylazetidin-3-yl)methoxy)phenyl)ethynyl)-2,7-naphthyridin-3-yl)cyclopropanecarboxamide] | ≤ 500 nM | – | ≤ 100 nM | –
CNc1ncc(-c2nc3ccc(N4CC(F)C4)cn3n2)c2cc(NC(=O)C3CC3)ncc12 [Example 473, N-(5-(6-(3-fluoroazetidin-1-yl)-[1,2,4]triazolo[1,5-a]pyridin-2-yl)-8-(methylamino)-2,7-naphthyridin-3-yl)cyclopropanecarboxamide] | ≤ 500 nM | ≤ 100 nM | – | –
CNc1ncc(C#Cc2ccc3nnn(C)c3c2)c2cc(NC(=O)C3CC3)nnc12 [Example 882, N-(5-((1-methyl-1H-benzo[d][1,2,3]triazol-6-yl)ethynyl)-8-(methylamino)pyrido[3,4-c]pyridazin-3-yl)cyclopropanecarboxamide] | ≤ 500 nM | – | ≤ 100 nM | –
CNc1ncc(-c2nc3cc(OC)ccc3o2)c2cc(NC(=O)[C@@H]3C[C@@H]3F)ncc12 [Example 388, (1S,2S)-2-fluoro-N-(5-(5-methoxybenzo[d]oxazol-2-y1)-8-(methylamino)-2,7-naphthyridin-3-yl)cyclopropane-1-carboxamide] | ≤ 500 nM | ≤ 100 nM | – | –
CNc1ncc(-c2nc3cc(OC4CCC4C(C)(C)OC)ccc3o2)c2cc(NC(=O)C3CC3)ncc12 (stereo not drawn) [Example 346, N-(5-(5-(2-(2-methoxypropan-2-yl)cyclobutoxy)benzo[d]oxazol-2-yl)-8-(methylamino)-2,7-naphthyridin-3-yl)cyclopropanecarboxamide] | ≤ 500 nM | ≤ 100 nM | – | –
CNc1ncc(C#Cc2ccc3c(c2)OCC(COC)O3)c2cc(NC(=O)C3CC3)ncc12 (stereo not drawn) [Example 697, N-(5-((2-(methoxymethyl)-2,3-dihydrobenzo[b][1,4]dioxin-6-yl)ethynyl)-8-(methylamino)-2,7-naphthyridin-3-yl)cyclopropanecarboxamide] | ≤ 500 nM | – | ≤ 100 nM | –
